Measurements: patent US11000033B2, “Ketone or oxime compound, and herbicide” (NISSAN CHEMICAL CORPORATION, priority 2014, dated 2021)

Columns and labels:
Assay type in all cases: in vivo
Abutilon theophrasti = assay: Test Example 5: herbicidal effect by foliage application, plastic box (symbol M); conditions: 320 g/ha, 3 weeks after application
Summary of the method: (§1)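 Leaf-applied emulsion, water-diluted to a preset herbicide dose, on two-week-old seedlings raised in a 25° C. to 30° C. greenhouse; injury rated at 3 weeks using earlier criteria.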

Alopecurus myosuroides = assay: Test Example 4: herbicidal effect by soil treatment (symbol J); conditions: for J (Alopecurus myosuroides) herbicidal effect grade: application herbicide amount 320 g/ha; for J: Alopecurus myosuroides, herbicidal effect grade: 320 g/ha
Summary of the method: (§2)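 Seeds were sown in sterilized diluvial soil, covered with about 1.5 cm of soil, and the soil surface was sprayed with a water-diluted emulsion of the compound at a predetermined rate. Plants grew in a greenhouse at 25° C. to 30° C.; effects were scored visually 3 weeks after application.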

Setaria viridis = assay: Test Example 5: herbicidal effect by foliage application, plastic box (symbol G); conditions: 320 g/ha, 3 weeks after application
Summary of the method: as §1

Avena fatua = assay: Test Example 4: herbicidal effect by soil treatment (symbol I); conditions: for I (Avena fatua) herbicidal effect grade: application herbicide amount 320 g/ha; for I: Avena fatua, herbicidal effect grade: 320 g/ha
Summary of the method: as §2

Amaranthus retroflexus = assay: Test Example 5: herbicidal effect by foliage application, plastic box (symbol N); conditions: 320 g/ha, 3 weeks after application
Summary of the method: as §1

[1] = system: Echinochloa oryzacola Vasing.; assay: Test Example 1: herbicidal activity, application before weed generation in submerged conditions (symbol A); conditions: application herbicide amount 320 g/ha
Summary of the method: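 Greenhouse growth at 25–30 °C lasted 3 weeks after treatment, when each weed was graded 0–5 by herbicidal ratio. Treatment was a diluted emulsion applied to the water surface of 4 cm-submerged alluvial soil on the sowing day.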

Veronica persica [2] = assay: Test Example 4: herbicidal effect by soil treatment (symbol R); conditions: for R (Veronica persica) herbicidal effect grade: application herbicide amount 320 g/ha; for R: Veronica persica, herbicidal effect grade: 320 g/ha
Summary of the method: as §2

Veronica persica [3] = assay: Test Example 5: herbicidal effect by foliage application, plastic box (symbol R); conditions: 320 g/ha, 3 weeks after application
Summary of the method: as §1

Lolium multiflorum Lam. [4] = assay: Test Example 4: herbicidal effect by soil treatment (symbol K); conditions: for K (Lolium multiflorum Lam.) herbicidal effect grade: application herbicide amount 320 g/ha; for K: Lolium multiflorum Lam., herbicidal effect grade: 320 g/ha
Summary of the method: as §2

rapeseed = assay: Test Example 4: effect on crop by soil treatment (symbol g); conditions: for g (rapeseed) effect on crop grade: application herbicide amount 320 g/ha; for g: rapeseed, effect grade on crop: 320 g/ha
Summary of the method: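 Plants are raised in a greenhouse (25° C. to 30° C.) from spot-sown seed, which sits under about 1.5 cm of sterilized diluvial soil in a box shared with weed species.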

corn = assay: Test Example 4: effect on crop by soil treatment (symbol c); conditions: for c (corn) effect on crop grade: application herbicide amount 320 g/ha; for c: corn, effect grade on crop: 320 g/ha
Summary of the method: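 Diluvial soil (sterilized) in boxes; seeds placed spot-wise alongside weed species; ~1.5 cm covering soil. Greenhouse, 25–30° C.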

rice plant = assay: Test Example 5: effect on crop by foliage application, plastic box (symbol b); conditions: 320 g/ha, 3 weeks after application
Summary of the method: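 Crop seed is sown alongside grass and broadleaf weed species in spots in sterilized diluvial soil, then covered to a depth of about 1.5 cm. Plants grow in a greenhouse kept at 25° C. to 30° C.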

Galium spurium = assay: Test Example 5: herbicidal effect by foliage application, plastic box (symbol Q); conditions: 320 g/ha, 3 weeks after application
Summary of the method: as §1

Lolium multiflorum Lam. [5] = assay: Test Example 5: herbicidal effect by foliage application, plastic box (symbol K); conditions: 320 g/ha, 3 weeks after application
Summary of the method: as §1

[6] = system: Echinochloa oryzacola Vasing.; assay: Test Example 2: herbicidal activity, application during weed generation in submerged conditions (symbol A); conditions: Table 23; application herbicide amount 320 g/ha; grade 0-5 by criteria of Test Example 1
Summary of the method: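 Weeds emerging under flooded conditions were treated with compound formulated as an emulsion and diluted with water to the intended herbicide amount, poured onto the surface of 4 cm standing water. Seeds had been co-sown in alluvial soil; plants grew at 25° C. to 30° C. and were assessed after 3 weeks.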

[7] = system: Echinochloa crus-galli var. crus-galli; assay: Test Example 4: herbicidal effect by soil treatment (symbol H); conditions: for H (Echinochloa crus-galli var. crus-galli) herbicidal effect grade: application herbicide amount 320 g/ha; for H: Echinochloa crus-galli var. crus-galli, herbicidal effect grade: 320 g/ha
Summary of the method: as §2

Stellaria media = assay: Test Example 5: herbicidal effect by foliage application, plastic box (symbol P); conditions: 320 g/ha, 3 weeks after application
Summary of the method: as §1

SMILES: CON=C(C)CC1CC(OC)=C(c2c(C)cc(C)cc2C)C1=O (centres unmarked) [1-001, 2-mesityl-3-methoxy-5-{2-(methoxyimino)propyl}cyclopent-2-enone]
- M: Abutilon theophrasti, herbicidal effect grade (Abutilon theophrasti): 0 (Herbicidal ratio of 5% or lower (almost no effect))
- J (Alopecurus myosuroides) herbicidal effect grade (Alopecurus myosuroides): 0 (Herbicidal ratio of 5% or lower (almost no effect))
- G: Setaria viridis, herbicidal effect grade (Setaria viridis): 0 (Herbicidal ratio of 5% or lower (almost no effect))
- I (Avena fatua) herbicidal effect grade (Avena fatua): 0 (Herbicidal ratio of 5% or lower (almost no effect))
- N: Amaranthus retroflexus, herbicidal effect grade (Amaranthus retroflexus): 0 (Herbicidal ratio of 5% or lower (almost no effect))
- Herbicidal effect grade, A: Echinochloa oryzacola Vasing. [1]: 0 (Herbicidal ratio of 5% or lower (almost no effect))
- R (Veronica persica) herbicidal effect grade (Veronica persica [2]): 0 (Herbicidal ratio of 5% or lower (almost no effect))
- R: Veronica persica, herbicidal effect grade (Veronica persica [3]): 0 (Herbicidal ratio of 5% or lower (almost no effect))
- K (Lolium multiflorum Lam.) herbicidal effect grade (Lolium multiflorum Lam. [4]): 0 (Herbicidal ratio of 5% or lower (almost no effect))
- g (rapeseed) effect on crop grade (rapeseed): 0 (Herbicidal ratio of 5% or lower (almost no effect))
- c (corn) effect on crop grade (corn): 0 (Herbicidal ratio of 5% or lower (almost no effect))
- b: directly sowed rice plant, effect on crop grade (rice plant): 0 (Herbicidal ratio of 5% or lower (almost no effect))
- Q: Galium spurium, herbicidal effect grade (Galium spurium): 0 (Herbicidal ratio of 5% or lower (almost no effect))
- K: Lolium multiflorum Lam., herbicidal effect grade (Lolium multiflorum Lam. [5]): 0 (Herbicidal ratio of 5% or lower (almost no effect))
- Herbicidal effect grade, A: Echinochloa oryzacola Vasing. [6]: 0 (Herbicidal ratio of 5% or lower (almost no effect))
- H (Echinochloa crus-galli var. crus-galli) herbicidal effect grade [7]: 0 (Herbicidal ratio of 5% or lower (almost no effect))
- P: Stellaria media, herbicidal effect grade (Stellaria media): 0 (Herbicidal ratio of 5% or lower (almost no effect))

SMILES: CON=C(C)CC1CC(O)=C(c2c(C)cc(C)cc2C)C1=O (centres unmarked) [1-002, 3-hydroxy-2-mesityl-5-{2-(methoxyimino)propyl}cyclopent-2-enone]
- M: Abutilon theophrasti, herbicidal effect grade (Abutilon theophrasti): 4 (Herbicidal ratio of 70% or higher and lower than 90%)
- J (Alopecurus myosuroides) herbicidal effect grade (Alopecurus myosuroides): 5 (Herbicidal ratio of 90% or more (almost completely withered))
- G: Setaria viridis, herbicidal effect grade (Setaria viridis): 5 (Herbicidal ratio of 90% or more (almost completely withered))
- I (Avena fatua) herbicidal effect grade (Avena fatua): 5 (Herbicidal ratio of 90% or more (almost completely withered))
- N: Amaranthus retroflexus, herbicidal effect grade (Amaranthus retroflexus): 5 (Herbicidal ratio of 90% or more (almost completely withered))
- Herbicidal effect grade, A: Echinochloa oryzacola Vasing. [1]: 5 (Herbicidal ratio of 90% or more (almost completely withered))
- R (Veronica persica) herbicidal effect grade (Veronica persica [2]): 5 (Herbicidal ratio of 90% or more (almost completely withered))
- R: Veronica persica, herbicidal effect grade (Veronica persica [3]): 4 (Herbicidal ratio of 70% or higher and lower than 90%)
- K (Lolium multiflorum Lam.) herbicidal effect grade (Lolium multiflorum Lam. [4]): 5 (Herbicidal ratio of 90% or more (almost completely withered))
- g (rapeseed) effect on crop grade (rapeseed): 5 (Herbicidal ratio of 90% or more (almost completely withered))
- c (corn) effect on crop grade (corn): 4 (Herbicidal ratio of 70% or higher and lower than 90%)
- b: directly sowed rice plant, effect on crop grade (rice plant): 5 (Herbicidal ratio of 90% or more (almost completely withered))
- Q: Galium spurium, herbicidal effect grade (Galium spurium): 4 (Herbicidal ratio of 70% or higher and lower than 90%)
- K: Lolium multiflorum Lam., herbicidal effect grade (Lolium multiflorum Lam. [5]): 5 (Herbicidal ratio of 90% or more (almost completely withered))
- Herbicidal effect grade, A: Echinochloa oryzacola Vasing. [6]: 5 (Herbicidal ratio of 90% or more (almost completely withered))
- H (Echinochloa crus-galli var. crus-galli) herbicidal effect grade [7]: 5 (Herbicidal ratio of 90% or more (almost completely withered))
- P: Stellaria media, herbicidal effect grade (Stellaria media): 4 (Herbicidal ratio of 70% or higher and lower than 90%)

SMILES: CCCC=CC(=O)OC1=C(c2c(C)cc(C)cc2C)C(=O)C(CC(C)=NOC)C1 (centres unmarked) [1-090]
- M: Abutilon theophrasti, herbicidal effect (criteria 0-5) (Abutilon theophrasti): 4 (Herbicidal ratio of 70% or higher and lower than 90%)
- J: Alopecurus myosuroides, herbicidal effect grade (Alopecurus myosuroides): 5 (Herbicidal ratio of 90% or more (almost completely withered))
- G: Setaria viridis, herbicidal effect (criteria 0-5) (Setaria viridis): 5 (Herbicidal ratio of 90% or more (almost completely withered))
- I: Avena fatua, herbicidal effect grade (Avena fatua): 3 (Herbicidal ratio of 40% or higher and lower than 70%)
- N: Amaranthus retroflexus, herbicidal effect (criteria 0-5) (Amaranthus retroflexus): 1 (Herbicidal ratio of 5% or higher and lower than 20%)
- Herbicidal effect grade, A: Echinochloa oryzacola Vasing. [1]: 5 (Herbicidal ratio of 90% or more (almost completely withered))
- R: Veronica persica, herbicidal effect grade (Veronica persica [2]): 0 (Herbicidal ratio of 5% or lower (almost no effect))
- R: Veronica persica, herbicidal effect (criteria 0-5) (Veronica persica [3]): 3 (Herbicidal ratio of 40% or higher and lower than 70%)
- K: Lolium multiflorum Lam., herbicidal effect grade (Lolium multiflorum Lam. [4]): 5 (Herbicidal ratio of 90% or more (almost completely withered))
- g: rapeseed, effect grade on crop (rapeseed): 4 (Herbicidal ratio of 70% or higher and lower than 90%)
- c: corn, effect grade on crop (corn): 3 (Herbicidal ratio of 40% or higher and lower than 70%)
- b: directly sowed rice plant, effect on crop (criteria 0-5) (rice plant): 5 (Herbicidal ratio of 90% or more (almost completely withered))
- Q: Galium spurium, herbicidal effect (criteria 0-5) (Galium spurium): 0 (Herbicidal ratio of 5% or lower (almost no effect))
- K: Lolium multiflorum Lam., herbicidal effect (criteria 0-5) (Lolium multiflorum Lam. [5]): 5 (Herbicidal ratio of 90% or more (almost completely withered))
- Herbicidal effect grade, A: Echinochloa oryzacola Vasing. [6]: 5 (Herbicidal ratio of 90% or more (almost completely withered))
- H: Echinochloa crus-galli var. crus-galli, herbicidal effect grade [7]: 5 (Herbicidal ratio of 90% or more (almost completely withered))
- P: Stellaria media, herbicidal effect (criteria 0-5) (Stellaria media): 3 (Herbicidal ratio of 40% or higher and lower than 70%)

SMILES: COCC(=O)OC1=C(c2c(C)cc(C)cc2C)C(=O)C(CC(C)=NOC)C1 (centres unmarked) [1-093]
- M: Abutilon theophrasti, herbicidal effect (criteria 0-5) (Abutilon theophrasti): 4 (Herbicidal ratio of 70% or higher and lower than 90%)
- J: Alopecurus myosuroides, herbicidal effect grade (Alopecurus myosuroides): 5 (Herbicidal ratio of 90% or more (almost completely withered))
- G: Setaria viridis, herbicidal effect (criteria 0-5) (Setaria viridis): 5 (Herbicidal ratio of 90% or more (almost completely withered))
- I: Avena fatua, herbicidal effect grade (Avena fatua): 3 (Herbicidal ratio of 40% or higher and lower than 70%)
- N: Amaranthus retroflexus, herbicidal effect (criteria 0-5) (Amaranthus retroflexus): 4 (Herbicidal ratio of 70% or higher and lower than 90%)
- Herbicidal effect grade, A: Echinochloa oryzacola Vasing. [1]: 5 (Herbicidal ratio of 90% or more (almost completely withered))
- R: Veronica persica, herbicidal effect grade (Veronica persica [2]): 0 (Herbicidal ratio of 5% or lower (almost no effect))
- R: Veronica persica, herbicidal effect (criteria 0-5) (Veronica persica [3]): 3 (Herbicidal ratio of 40% or higher and lower than 70%)
- K: Lolium multiflorum Lam., herbicidal effect grade (Lolium multiflorum Lam. [4]): 5 (Herbicidal ratio of 90% or more (almost completely withered))
- g: rapeseed, effect grade on crop (rapeseed): 4 (Herbicidal ratio of 70% or higher and lower than 90%)
- c: corn, effect grade on crop (corn): 5 (Herbicidal ratio of 90% or more (almost completely withered))
- b: directly sowed rice plant, effect on crop (criteria 0-5) (rice plant): 5 (Herbicidal ratio of 90% or more (almost completely withered))
- Q: Galium spurium, herbicidal effect (criteria 0-5) (Galium spurium): 0 (Herbicidal ratio of 5% or lower (almost no effect))
- K: Lolium multiflorum Lam., herbicidal effect (criteria 0-5) (Lolium multiflorum Lam. [5]): 5 (Herbicidal ratio of 90% or more (almost completely withered))
- Herbicidal effect grade, A: Echinochloa oryzacola Vasing. [6]: 5 (Herbicidal ratio of 90% or more (almost completely withered))
- H: Echinochloa crus-galli var. crus-galli, herbicidal effect grade [7]: 5 (Herbicidal ratio of 90% or more (almost completely withered))
- P: Stellaria media, herbicidal effect (criteria 0-5) (Stellaria media): 2 (Herbicidal ratio of 20% or higher and lower than 40%)
